pIC50: −log10 of the molar value.
Assays:
[1] = biological target: Histone deacetylase (HDAC1 and HDAC2) (Homo sapiens, UniProt Q13547+Q92769); assay: Inhibition of HDAC1/HDAC2 from human Hela nuclear extracts using [3H]acetylated histone peptide by colorimetry; type: protein assay
HCT-116 [2] = assay: Antiproliferative activity against human HCT116 cells after 2 days by MTT assay; type: functional, cell-based; conditions: HCT-116, 48 h
A549 = assay: Antiproliferative activity against human A549 cells after 2 days by MTT assay; type: functional, cell-based; conditions: A549, 48 h
HCT-116 [3] = assay: Cell cycle arrest in human HCT116 cells assessed as accumulation at G1 phase at 1 umol/L by flow cytometry; type: functional
HCT-116 [4] = assay: Cell cycle arrest in human HCT116 cells assessed as accumulation at S phase at 1 umol/L by flow cytometry; type: functional
HCT-116 [5] = assay: Cell cycle arrest in human HCT116 cells assessed as accumulation at G2 phase at 1 umol/L by flow cytometry; type: functional

Row | Structure (SMILES) | IC50 [1] [nM] | also measured
1 | COc1cc(CCC(=O)Nc2ccc(C(=O)NO)cc2)ccc1OCCC(C)C | 2900 | 
2 | COc1cc(CCC(=O)Nc2ccc(C(=O)NO)cc2)ccc1OCc1cccc(Cl)c1 | 1600 | 
3 | COc1cc(CCC(=O)Nc2ccc(C(=O)NO)cc2)ccc1OCc1ccccn1 | 3900 | 
4 | COc1cc(CCC(=O)Nc2ccc(C(=O)NO)cc2)ccc1OCc1cccs1 | 300 | pIC50 (HCT-116 [2]): 7.52; pIC50 (A549): 7.10; Activity (HCT-116 [3]): 28.51%; Activity (HCT-116 [4]): 24.33%; Activity (HCT-116 [5]): 47.16%
5 | COc1cc(CCC(=O)Nc2ccc(C(=O)NO)cc2)ccc1OCc1ccc(Br)cc1 | 800 | 
6 | COc1cc(CCC(=O)Nc2ccc(C(=O)NO)cc2)ccc1OCc1ccccc1Cl | 1200 | 
7 | O=C(CCc1ccc2c(c1)OCO2)Nc1ccc(C(=O)NO)cc1 | 400 | pIC50 (HCT-116 [2]): 7.22; pIC50 (A549): 6.30; Activity (HCT-116 [3]): 17.09%; Activity (HCT-116 [4]): 34.11%; Activity (HCT-116 [5]): 48.8%
8 | CCOc1ccc(CCC(=O)Nc2ccc(C(=O)NO)cc2)cc1OC | 2900 | 
9 | COc1ccc(CCC(=O)Nc2ccc(C(=O)NO)cc2)cc1OC | 3300 | 
10 | COc1cc(CCC(=O)Nc2ccc(C(=O)NO)cc2)ccc1OCc1ccc(C)cc1 | 1500 | 
11 | COc1cc(CCC(=O)Nc2ccc(C(=O)NO)cc2)ccc1OCc1ccccc1Br | 600 | pIC50 (HCT-116 [2]): 7.00; pIC50 (A549): 6.22
12 | COc1cc(CCC(=O)Nc2ccc(C(=O)NO)cc2)ccc1OCc1cccc(C)c1 | 2600 | 
13 | COc1cc(CCC(=O)Nc2ccc(C(=O)NO)cc2)ccc1OCc1ccccc1 | 700 | pIC50 (HCT-116 [2]): 6.92; pIC50 (A549): 6.22
14 | COc1cc(CCC(=O)Nc2ccc(C(=O)NO)cc2)ccc1OCc1cccc(Br)c1 | 900 | 
15 | CCCOc1ccc(CCC(=O)Nc2ccc(C(=O)NO)cc2)cc1OC | 1700 | 
16 | CCC(C)Oc1ccc(CCC(=O)Nc2ccc(C(=O)NO)cc2)cc1OC (centres undefined) | 2200 | 
17 | CCCCOc1ccc(CCC(=O)Nc2ccc(C(=O)NO)cc2)cc1OC | 1600 | 
18 | COc1cc(CCC(=O)Nc2ccc(C(=O)NO)cc2)ccc1OC1CCCC1 | 4000 | 
19 | COc1cc(CCC(=O)Nc2ccc(C(=O)NO)cc2)ccc1OCc1ccccc1C | 1800 | 
20 | COc1cc(CCC(=O)Nc2ccc(C(=O)NO)cc2)ccc1OCc1ccc(Cl)cc1 | 1400 | 
